Values after ≈ are worked out from the molar mass of the structure shown.
Target: EGFR (UniProt P00533)
Sequence (P00533 whole entry, looked up): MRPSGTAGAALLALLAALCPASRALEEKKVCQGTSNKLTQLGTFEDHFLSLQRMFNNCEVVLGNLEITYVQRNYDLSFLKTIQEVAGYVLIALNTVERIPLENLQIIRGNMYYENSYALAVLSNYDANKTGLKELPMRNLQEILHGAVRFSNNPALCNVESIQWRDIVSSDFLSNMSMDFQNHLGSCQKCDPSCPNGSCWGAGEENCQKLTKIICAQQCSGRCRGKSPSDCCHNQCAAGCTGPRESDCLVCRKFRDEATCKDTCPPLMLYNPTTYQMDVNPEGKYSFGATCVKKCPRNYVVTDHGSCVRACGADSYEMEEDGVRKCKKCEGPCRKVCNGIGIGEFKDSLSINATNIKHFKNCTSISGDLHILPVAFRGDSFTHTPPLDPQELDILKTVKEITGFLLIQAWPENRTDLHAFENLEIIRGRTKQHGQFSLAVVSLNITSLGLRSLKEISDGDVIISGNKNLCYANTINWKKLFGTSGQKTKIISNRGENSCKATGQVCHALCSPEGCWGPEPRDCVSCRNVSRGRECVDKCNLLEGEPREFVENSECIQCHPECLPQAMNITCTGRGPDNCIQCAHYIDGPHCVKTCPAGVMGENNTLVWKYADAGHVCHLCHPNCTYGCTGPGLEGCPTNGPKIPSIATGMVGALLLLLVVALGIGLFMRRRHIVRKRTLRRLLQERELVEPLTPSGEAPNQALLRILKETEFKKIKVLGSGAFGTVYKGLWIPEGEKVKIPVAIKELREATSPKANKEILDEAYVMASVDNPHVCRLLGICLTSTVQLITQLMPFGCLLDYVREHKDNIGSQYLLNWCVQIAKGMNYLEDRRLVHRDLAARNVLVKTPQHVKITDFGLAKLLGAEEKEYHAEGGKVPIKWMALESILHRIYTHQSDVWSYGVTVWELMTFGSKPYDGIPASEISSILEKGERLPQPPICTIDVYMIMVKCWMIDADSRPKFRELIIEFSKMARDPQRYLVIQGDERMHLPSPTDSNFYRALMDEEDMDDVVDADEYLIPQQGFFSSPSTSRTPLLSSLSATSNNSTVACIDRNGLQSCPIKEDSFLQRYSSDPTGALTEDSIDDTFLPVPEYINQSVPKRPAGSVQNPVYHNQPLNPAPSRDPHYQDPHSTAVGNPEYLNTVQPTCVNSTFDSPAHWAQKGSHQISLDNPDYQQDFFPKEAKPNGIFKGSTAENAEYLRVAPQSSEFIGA

Row | IC50 [µg/mL] | Structure (SMILES)
1 | > 4.5 | CN(c1cccc(Cl)c1)c1ncnc(Nc2cc(Cl)c(Cl)c(Cl)c2)n1
2 | > 4.5 | COc1ccc(Nc2ncnc(NCCNC(C)=O)n2)cc1OC
3 | > 4.5 | COc1cc(Nc2ncnc(-c3cccnc3Nc3cc(Cl)cc(Cl)c3)n2)cc(OC)c1OC
4 | > 4.5 | COc1ccc(Nc2ncnc(NCc3ccc(C)c(Cl)c3)n2)cc1OC
5 | > 4.5 | COc1cc(Nc2ncnc(-n3c(NCCO)nc4ccccc43)n2)cc(OC)c1OC
6 | > 4.5 | COc1cccc(Nc2nc3ccccc3n2-c2ncnc(Nc3cc(OC)c(OC)c(OC)c3)n2)c1
7 | > 4.5 | COc1cc(Nc2ncnc(-n3c(N)nc4ccccc43)n2)ccc1OCCn1ccnn1
8 | > 4.5 | COc1cc(Nc2ncnc(-n3c(=O)sc4cc(Br)ccc43)n2)cc(OC)c1OC
9 | > 4.5 | NC(=O)[C@H](CO)Nc1ncnc(-n2c(=O)[nH]c3ccccc32)n1
10 | > 4.5 | Cc1ccc2c(c1)CCCN2c1ncnc(NCCc2cccnc2)n1
11 | 2.4 to 3.5 (≈ 4.92 to 7.18 µM) | COc1cc(Nc2ncnc(Nc3cc(-c4cccc(C(F)(F)F)c4)n[nH]3)n2)cc(OC)c1OC
12 | > 4.5 | COc1cc(Nc2ncnc(-n3c(NCc4ccc(OC(F)(F)F)cc4)nc4ccccc43)n2)cc(OC)c1OC
13 | > 4.5 | COc1cc(Nc2ncnc(-n3c(Nc4ccc(C)cc4)nc4ccccc43)n2)cc(OC)c1OC
14 | 0.4 to 2.4 (≈ 1.08 to 6.5 µM) | c1ccc(-c2cc(Nc3ncnc(Nc4ccc5[nH]ncc5c4)n3)[nH]n2)cc1
15 | > 4.5 | NS(=O)(=O)c1ccc(CNc2ncnc(-n3c(=O)[nH]c4ccccc43)n2)cc1
16 | > 4.5 | COc1cc(Nc2ncnc(-c3cccnc3NCC(C)c3ccccc3)n2)cc(OC)c1OC (configuration not stated)
17 | > 4.5 | COc1cc(Nc2ncnc(-n3c(Nc4ccc(C(C)C)cc4)nc4ccccc43)n2)cc(OC)c1OC
18 | > 4.5 | COc1cc(Nc2ncnc(-c3ccc(NCc4ccccc4)nc3)n2)cc(OC)c1OC
19 | > 4.5 | NC(=O)c1cccc(Nc2ncnc(-c3cccs3)n2)c1
20 | < 0.4 | Clc1cccc(Nc2ncnc(Nc3ccc4[nH]ncc4c3)n2)c1
21 | > 4.5 | Nc1ncnc(-n2c(N)nc3ccccc32)n1

Row | IC50 [µg/mL] | Structure (SMILES)
22 | < 0.4 | c1ccc(Cn2ncc3cc(Nc4ncnc(Nc5ccc6ncsc6c5)n4)ccc32)cc1
23 | < 0.4 | CN(c1cccc(Cl)c1)c1ncnc(Nc2ccc(S(C)(=O)=O)cc2)n1
24 | < 0.4 | CN(c1cccc(Cl)c1)c1ncnc(Nc2ccc3nn(C)cc3c2)n1
25 | > 4.5 | COc1ccc(CNc2ncnc(Nc3cc(OC)c(OC)c(OC)c3)n2)cc1
26 | > 4.5 | COc1cc(Nc2ncnc(-n3c(Nc4ccc(Cl)cc4)nc4ccccc43)n2)cc(OC)c1OC
27 | > 4.5 | COc1cc(Nc2ncnc(-n3c(NCc4ccccn4)nc4ccccc43)n2)cc(OCCN2CCOCC2)c1OC
28 | 2.4 to 3.5 (≈ 5.29 to 7.72 µM) | Fc1ccc(CNc2ncccc2-c2ncnc(Nc3cccc(Cn4ccnn4)c3)n2)cc1
29 | < 0.4 | COc1cc(Nc2ncnc(Nc3ccc(Br)cc3F)n2)cc(OC)c1OC
30 | > 4.5 | COc1ccc(Nc2ncnc(Nc3ccc(OCc4ccccc4)cc3)n2)cc1
31 | 0.4 to 2.4 (≈ 1 to 6.01 µM) | COc1cc(Nc2ncnc(Nc3cc(C(C)(C)C)[nH]n3)n2)cc(OC)c1OC
32 | > 4.5 | COC(=O)c1cccc(Nc2ncnc(Nc3cc(-c4ccco4)n[nH]3)n2)c1
33 | > 4.5 | O=c1[nH]c2ccccc2n1-c1ncnc(Nc2ccccn2)n1
34 | 2.4 to 3.5 (≈ 6.24 to 9.1 µM) | Nc1nc2ccccc2n1-c1ncnc(Nc2cccc(Cn3ccnn3)c2)n1
35 | > 4.5 | O=c1[nH]c2ccccc2n1-c1ncnc(Nc2ccc(Cl)cc2)n1
36 | > 4.5 | COc1cc(Nc2ncnc(Nc3nc4ccccc4s3)n2)cc(OC)c1OC
37 | 0.4 to 2.4 (≈ 1.22 to 7.31 µM) | C#Cc1cccc(Nc2ncnc(-n3c(=O)[nH]c4ccccc43)n2)c1
38 | > 4.5 | COc1cc(Nc2ncnc(-c3cccnc3NCc3ccc(F)cc3)n2)cc(OC)c1OC
39 | 0.4 to 2.4 (≈ 1.02 to 6.1 µM) | COc1cc(Nc2ncnc(N3c4ccccc4CC3C)n2)cc(OC)c1OC (configuration not stated)
40 | > 4.5 | COc1cc(OC)nc(Nc2ncnc(-n3c(=O)[nH]c4ccccc43)n2)n1
41 | > 4.5 | COc1ccc([C@@H](C)Nc2nc3ccccc3n2-c2ncnc(Nc3cc(OC)c(OC)c(OC)c3)n2)cc1
42 | > 4.5 | CC(C)(C)OC(=O)Nc1ccc(Nc2ncnc(-c3ccccc3)n2)cc1

Source: the Kinase Knowledgebase extract (Sharma et al. 2016)
